According to PMC3527451, “A Pilot Randomized, Placebo Controlled, Double Blind Phase I Trial of the Novel SIRT1 Activator SRT2104 in Elderly Volunteers” (PLoS ONE, 2012):
Entries after “also recorded” stand apart in the source; their conditions may differ. Read-outs that look alike come from different tables or passages of the source.

What was measured:
CYP2C9 = conditions: human liver microsomes; cited from earlier work
[1] = cited from earlier work
[2] = tested on: elderly male and female volunteers; experiment: Modified oral glucose tolerance test (mOGTT); format: in vivo, human
Procedure: The oral glucose tolerance test (OGTT) allows identification and monitoring of individuals with impaired glucose tolerance and to evaluate the pharmacological effects of glucose lowering agents, [21]. A mOGTT was performed at baseline and on day 29 to assess the pharmacodynamic effects of SRT2104 (or placebo) on glucose, insulin and C-peptide levels. On both occasion, after an overnight fast, subjects were asked to drink a standard glucose beverage containing 75 g of glucose. Blood sample were drawn 10 min before and just prior to the subject consuming the beverage. Additional blood samples were drawn at 10, 20, 30, 60, 90, 120 and 180 minutes after the subject had consumed the glucose beverage. Plasma level of glucose, insulin and C-peptide were measured at each time point. The maximum glucose level (Gmax) was determined, and the area under the plasma glucose concentration–time curve (AUCgluc) was calculated using the trapezoidal rule. AUCgluc60 was defined as the area under the curve from 0 to 60 min after glucose ingestion, the period during which plasma glucose concentration increases. The effects of SRT2104 (or placebo) on glucose, insulin and C-peptide levels and relative AUCs were calculated in each subject as the differences between values at baseline (screening) and after 28 daily administrations of the test material.

CYP3A4 [3] = conditions: human liver microsomes; cited from earlier work
healthy male volunteers = conditions: young healthy volunteers, up to 7 days dosing of 0.03–3.0 g/day; cited from earlier work
39 common receptors = tested on: 39 common receptors; design: method as in SRT2104 Investigator's Brochure; conditions: in vitro; ref SRT2104 Investigator's Brochure; cited from earlier work
SIRT2 = conditions: SIRT1 activation over SIRT2; ref SRT2104 Investigator's Brochure; cited from earlier work
[4] = tested on: elderly male and female volunteers; experiment: Maximal aerobic capacity test (incremental cycle ergometer); format: in vivo, human
Procedure: A stepwise incremental exercise test was performed on a cycle ergometer (Monarch 874E, Monark Exercise AB, Vansbro, Sweden). All participants were familiarized to the test procedure on a separate occasion prior to testing. Participants were seated in a standardized position. The test started with unloaded cycling, subjects were asked to maintain a cadence of 50 revolutions per minute (rpm), if the subject could not achieve 50 rpm they were encouraged to cycle as fast as the could (but not less than 40 rpm). Every two minutes the external load on the cycle ergometer was increased by 0.5 kg, this equated to a 25-Watt increase in workload at 50 rpm. Cardiac monitoring of heart rate, respiratory rate/minute ventilation and pulse oximeter for oxygen saturation were continuously recorded during the test.
Analysis of Maximal Aerobic Capacity parameters was performed using an ANOVA model with treatment group as a factor. Workload was progressed in 2-minute staged increments from an initial 3 minutes unloaded cycling, to exhaust subjects over a 6- to 10-min period. The test was terminated when the participant reached volitional exhaustion or their cadence dropped by 10 rpm. At the end of each increment, work-rate watts, rating of perceived exertion (Borg RPE scale), heart rate (Polar Vantage chest heart rate monitor, Polar Electro, Finland) and 3-lead ECG were recorded.

[5] = tested on: bacterial reverse mutation assay (AMES test), mouse lymphoma and mouse micronucleus; design: method as in ref 17, 18; SRT2104 Investigator's Brochure; conditions: preclinical; SRT2104 Investigator's Brochure; cited from earlier work
[6] = cited from earlier work; remark: listed apart in the source
healthy male subjects = tested on: healthy male subjects; design: method as in SRT-2104-002; conditions: 250 mg oral suspension and intravenous microdose of 100µg 14C-SRT2104, eight healthy male subjects; ref SRT-2104-002; cited from earlier work
[7] = tested on: elderly male and female volunteers; experiment: Serum lipid profile at baseline and after 28 days treatment; format: in vivo, human
Procedure: At every visit (including at screening and follow-up), blood and urine samples were collected for clinical laboratory assessments (general blood biochemistry, full blood count, coagulation parameters and urinalysis). On the same days, physical examination, vital signs (resting pulse rate, respiration rate, temperature, and blood pressure readings), pre- and post-dose 12-lead ECG and a review of adverse events (AE) and any medications received were also performed. Safety evaluations were based on the incidence, severity and type of AEs and clinically significant changes from baseline in physical examination findings, vital signs or clinical laboratory results.

CYP3A4 [8] = tested on: CYP3A4; design: method as in ref 17, 18 (a number printed in a supplementary file, which may have a reference list of its own: not looked up in the article's list); conditions: cultured hepatocytes, at the concentrations tested; cited from earlier work
dog = tested on: dog; design: method as in SRT2104 Investigator's Brochure; conditions: ref SRT2104 Investigator's Brochure, cited from earlier work
CYP1A = conditions: human liver microsomes; cited from earlier work
CYP2D6 = conditions: human liver microsomes; cited from earlier work

In the case of `Cc1nc(-c2cccnc2)sc1C(=O)Nc1ccccc1-c1cn2c(CN3CCOCC3)csc2n1` [SRT2104], the “inhibition of CYP2C9” value (CYP2C9) is listed as “not an inhibitor; also recorded: does not inhibit”, the “effect of food on overall exposure” value ([1]; 0.5 and 2.0 g doses, standardized solid meal vs fasted state) is listed as “increase exposure levels; also recorded: increase in overall exposure” and the “effect of food on inter-subject variability in exposure” value ([1]; fed state vs fasted state) is listed as “substantial reduction in inter-subject variability”. For the same compound, the OGTT responses ([2]; 0.5 or 2.0 g for 28 days) was “No significant changes”, the “rise of insulin and C-peptide and peak insulin concentration in OGTT” value ([2]; 2.0 g/day, day 29 relative to baseline) was “trends to reduced rates in the rise of both insulin and C-peptide and a lower peak insulin concentration” and the “insulin and C-peptide levels and relative AUCs in OGTT” value ([2]; baseline vs day 29) was “no statistically significant changes”. The “inhibition of CYP3A4” value (CYP3A4 [3]) was “not an inhibitor; also recorded: does not inhibit”, the tolerability (healthy male volunteers) was “well tolerated and safe” and the “inhibitory activity against 39 common receptors” value (39 common receptors) was “no significant inhibitory activity”. The “fold selectivity as compared to SIRT2” value (SIRT2) was over 100, the “RPE, range of change from baseline” value ([4]; 0.5g/day, day 27) was -3-6 and the “TTC, range of change from baseline” value ([4]; 0.5g/day, day 27) was -106 to 67 s. The “TTC, mean change from baseline (SD)” value ([4]; 0.5g/day, day 27, p 0.004) was -31 (50) sec, the “RPE, mean change from baseline (SD)” value ([4]; 0.5g/day, day 27, p 0.962) was 0 (3) and the “decrease in exercise capacity (time to cessation for the staged bicycle assessment)” value ([4]; 0.5 g/day, day 27, p = 0.004) was 4%. The “RPE, range of change from baseline” value ([4]; 2.0g/day, day 27) was -3-1, the “TTC, range of change from baseline” value ([4]; 2.0g/day, day 27) was -29 to 45 s and the “change in exercise capacity” value ([4]; 2.0g/day, day 27) was “no evidence for any changes”. For the same compound, the “TTC, mean change from baseline (SD)” value ([4]; 2.0g/day, day 27, p 0.292) was 9 (27) sec, the “RPE, mean change from baseline (SD)” value ([4]; 2.0g/day, day 27, p 0.638) was -1 (2) and the genotoxicity [5] was “not genotoxic”. The “dose proportionality of AUC(0-t) and Cmax” value ([6]; dose range 0.03 to 1.0 g/day) was “approximate dose proportionality”, the “dose proportionality of AUC(0-t) and Cmax” value ([6]; doses greater than 1.0 g/day up to 3.0 g/day) was “less than dose proportional increase between 1.0–3.0 g/day” and the “effect of dose on elimination half-life (t1/2)” value ([6]; doses up to 3.0 g/day) was “not affected by dose; also recorded: similar”. The “terminal elimination half-life (t½)” value ([6]; healthy male volunteers, 0.03 – 3.0 g/day, liquid suspension, ref SRT-2104-001 (19)) was 8 to 24 h, the tolerability (healthy male subjects) was “well-tolerated” and the “serum cholesterol levels, change relative to baseline as compared to placebo” value ([7]; 0.5 g/day, day 28, p = 0.0071) was “statistically significant decrease”. For the same compound, the “increase in mean HDL:LDL ratio as compared to placebo” value ([7]; 2.0 g/day, day 28, p = 0.0141) was “statistically significant”, the “serum cholesterol levels, change relative to baseline as compared to placebo” value ([7]; 2.0 g/day, day 28, p = 0.0181) was “statistically significant decrease” and the “total cholesterol, LDL levels and HDL:LDL ratio after drug washout” value ([7]; 7 days of drug washout) was “reverted to baseline values”. The “high-density lipoprotein, HDL” value ([7]; day 28) was “not changes”, the “low-density lipoprotein (LDL) cholesterol” value ([7]; day 28) was “decreases” and the “mean HDL:LDL ratios” value ([7]; day 28, 0.5 and 2.0 g/day) was “dose-dependent increase”. For the same compound, the “mean serum triglyceride concentration” value ([7]; day 28 relative to baseline, as compared to placebo, not dose-dependent, only a trend for 2.0 g/day) was “decrease”, the “Serum cholesterol, LDL levels and triglycerides” value ([7]; with treatment, 0.5 or 2.0 g for 28 days) was “decreased” and the “induction of CYP3A4” value (CYP3A4 [8]) was “not a significant inducer”. For the same compound, the tolerability (dog; dog, up to 2.0 g/kg for 28 days) was “well tolerated at all doses”, the “increase in indirect bilirubin” value (dog; female dogs, 2.0 g/kg/day group) was under 2 X and the NOAEL (dog; male and female dogs, 28 days) was 1.0 g/kg. The “inhibition of CYP1A” value (CYP1A) was “not an inhibitor; also recorded: does not inhibit” and the “inhibition of CYP2D6” value (CYP2D6) was “not an inhibitor; also recorded: does not inhibit”.
